Values joined by “and” are separate entries in the source; they are usually repeats but may differ in a detail not shown here. Equal entries are not always repeated. “Also recorded” adds a separate entry of the source.
Key:
[1] = test system: MCF-7/MX cells; assay: CellTiter-Glo cell viability assay (cytotoxicity), MCF-7/MX; format: cell-based; conditions: Homo sapiens, MCF7/MX; 48 h, BCRP-expressing, mean ± SEM
Procedure: (§1) The human lung adenocarcinoma cell line A549 was cultured in DMEM medium supplemented with 10% fetal bovine serum (FBS), 100 U/mL penicillin and 100 μg/mL streptomycin. P-gp-expressing human colon adenocarcinoma cells HCT-15 were cultured in RPMI 1640 medium supplemented with 10% FBS, 100 U/mL penicillin and 100 μg/mL streptomycin. BCRP-expressing MCF-7/MX human breast adenocarcinoma cells were cultured in DMEM medium supplemented with 10% FBS, 100 U/mL penicillin and 100 μg/mL streptomycin. MRP1-expressing H69AR human small cell lung cancer cells were cultured in RPMI 1640 medium (ATCC modification) supplemented with 20% FBS, 100 U/mL penicillin and 100 μg/mL streptomycin. All cancer cell lines employed have been systematically characterized regarding their respective ABC transporter expression profile ([Sachs et al., 2019]).
(§2) Cytotoxic activity of test compounds was analyzed after 48 h using the CellTiter-Glo Luminescent Cell Viability Assay published previously ([Weber et al., 2017]) in 384-well plates with the following cell densities: A549, MCF-7/MX: 2 × 10^3 cells/well; HCT-15: 3 × 10^3 cells/well; H69AR: 5 × 10^3 cells/well. Pipetting was conducted with the CyBi-Well 96-channel simultaneous pipettor (Analytik Jena AG, Jena, Germany). For generation of dose-response curves and calculation of IC50 values, the four-parameter logistic model was applied.

[2] = test system: H69AR cells; assay: CellTiter-Glo cell viability assay (cytotoxicity), H69AR; format: cell-based; conditions: Homo sapiens, 48 h, MRP1-expressing, mean ± SEM
Procedure: as §1, §2

[3] = test system: HCT-15 cells; assay: CellTiter-Glo cell viability assay (cytotoxicity), HCT-15; format: cell-based; conditions: Homo sapiens, 48 h, P-gp expressing, mean ± SEM
Procedure: as §1, §2

[4] = molecular target: T1, Pdr5 (Saccharomyces cerevisiae, UniProt P33302); assay: Pdr5 transport assay (R6G) in plasma membrane preparations; format: biochemical; set-up: R6G transport activity of Pdr5 WT inhibited to (initial screen): dose or concentration left out as unconfirmed; conditions: for R6G transport activity of Pdr5 WT inhibited to (initial screen): relative to Pdr5 WT without compound
T1 construct: effect on (A) the transport activity of Pdr5 WT and (B) their effect on the ATPase activity; made in house; host or cells: S. cerevisiae YRE1001 (pdr1-3 background), isolated plasma membranes
Procedure: (§3) Saccharomyces cerevisiae cells expressing Pdr5 WT or the E1036Q (EQ) mutant were cultured to an OD600 of 1.5 in YPD-media at 25°C. The nitrogen source was replenished by addition of a 10th volume of 5x YP (50 g/l yeast extract, 100 g/l peptone). The cells were grown to an OD of 3.5 and harvested (5000 ×g at 4°C for 15 min). The isolation of Pdr5 containing PMs was performed as described ([Kolaczkowski et al., 1996]; [Ernst et al., 2008]).
Active transport of R6G was measured according to the protocol developed by [Kolaczkowski et al. (1996)], using a Tecan Infinite 200 pro reader (Tecan Group AG, Männedorf, Switzerland). 6 μg of the isolated PM containing Pdr5 were resuspended in 200 μl of the transport buffer (50 mM HEPES, pH 7.0, 5 mM MgCl2, 10 mM NaN3, and 150 nM R6G) and incubated in a black 96-well plate at 30°C. 5 μl of the test compound were added at the indicated concentrations. Active transport was initiated by the addition of 10 μl 200 mM ATP and fluorescence intensity was recorded in 15 s-intervals for 20 min (excitation wavelength at 524 nm, emission wavelength at 558 nm, number of flashes 30, integration time 2000 μs). IC50 determination was performed with a serial dilution of the test compounds.

[5] = molecular target: T1, Pdr5; assay: Pdr5 ATPase assay (oligomycin-sensitive) in plasma membrane preparations; format: biochemical; conditions: highest concentrations (10 mM), in comparison to Pdr5 WT in the absence of any compound
Procedure: as §3
Oligomycin (OM)-sensitive ATPase activity was measured from 0.8 μg PM containing Pdr5 incubated with 2 mM ATP, 5 mM MgCl2 in 270 mM TRIS-glycine buffer (pH 9.5) and 2.5 μl of the test compounds or DMSO as a control in a total volume of 100 μl. To reduce the background activities, 0.2 mM ammonium molybdate, 10 mM NaN3 and 50 mM KNO3, respectively, were added ([Dufour et al., 1988]; [Goffeau and Dufour, 1988]). In a second assay, OM (20 μg/ml) was added to an otherwise identical setup. After incubation at 30°C for 20 min, the reaction was stopped by adding 25 μl of the reaction to 175 μl 40 mM H2SO4. The amount of released inorganic phosphate was determined by a colometric assay in 96-well plates ([Goffeau and Dufour, 1988]; [Decottignies et al., 1994]; [Wada et al., 2002]). The difference of both assays ( ± OM) corresponds to the specific ATPase activity of Pdr5 ([Ernst et al., 2008]).

[6] = molecular target: T2, BCRP (Homo sapiens, UniProt Q9UNQ0); assay: BCRP transport assay (Hoechst 33342) in MCF-7/MX cells; format: cell-based
T2 construct: endogenous in cells; host or cells: MCF-7/MX human breast adenocarcinoma cells (mitoxantrone-selected)
T2 sequence (Q9UNQ0 1-655): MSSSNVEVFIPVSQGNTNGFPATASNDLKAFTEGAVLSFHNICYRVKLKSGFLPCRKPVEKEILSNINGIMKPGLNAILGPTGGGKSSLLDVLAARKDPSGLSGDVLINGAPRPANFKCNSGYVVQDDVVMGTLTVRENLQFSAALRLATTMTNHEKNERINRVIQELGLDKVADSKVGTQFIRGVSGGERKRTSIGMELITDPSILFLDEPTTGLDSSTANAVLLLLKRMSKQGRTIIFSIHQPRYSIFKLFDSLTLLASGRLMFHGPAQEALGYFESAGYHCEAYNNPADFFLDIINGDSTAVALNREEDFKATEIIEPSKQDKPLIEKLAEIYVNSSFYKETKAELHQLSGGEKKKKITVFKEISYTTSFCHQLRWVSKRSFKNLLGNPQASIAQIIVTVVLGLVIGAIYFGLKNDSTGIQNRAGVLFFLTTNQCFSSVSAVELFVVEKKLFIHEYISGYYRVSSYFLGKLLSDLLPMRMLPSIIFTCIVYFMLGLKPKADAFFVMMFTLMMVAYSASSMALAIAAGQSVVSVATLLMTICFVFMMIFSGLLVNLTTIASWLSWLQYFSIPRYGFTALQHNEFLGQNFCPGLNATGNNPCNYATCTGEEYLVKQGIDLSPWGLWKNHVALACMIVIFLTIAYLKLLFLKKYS
Procedure: Breast cancer resistance protein transport activity was determined in the BCRP-expressing MCF-7/MX cell line. Hoechst 33342 was applied as transporter substrate and 1 μM Ko143 as positive control or 0.5% DMSO as negative control and the assay was performed according to the P-gp assay. Fluorescence was measured at an excitation wavelength of 355 nm and emission wavelength of 460 nm. The transport activity of BCRP was analyzed by determining the plateau of the fluorescence-time curve by using non-linear regression (one-phase exponential fit). Normalization of the data to Ko143 (100% inhibition) and DMSO (0% inhibition) was performed.

[7] = molecular target: T3, P-gp (Homo sapiens, UniProt P08183); assay: P-gp transport assay (calcein-AM) in HCT-15 cells; format: cell-based
T3 construct: endogenous in cells; host or cells: HCT-15 human colon adenocarcinoma cells
Procedure: The transport of calcein-AM by P-gp and its modulation by test compounds was analyzed in the P-gp-expressing HCT-15 cell line. 5 × 10^4 cells were seeded in black 96-well plates and incubated at 37°C and 5% CO2 for 24 h. The culture medium was removed and replaced by Hank’s balanced salt solution supplemented with 10 mM HEPES. Test compounds, 2.5 μM PSC833 (positive control) or 0.5% DMSO (negative control) were added in triplicates and incubated for 30 min at 37°C and 5% CO2. The substrate calcein-AM was added (final concentration 0.5 μM) and the fluorescence (excitation 485 nm, emission 520 nm) was measured over 3 h with the Infinite m1000 pro microplate reader (Tecan Group AG, Männedorf, Switzerland) at 37°C. The transport activity of P-gp was analyzed by determining the slope of the linear part of the fluorescence-time curve (0–30 min) using linear regression. Normalization of the data to PSC833 (100% inhibition) and DMSO (0% inhibition) was performed.

[8] = test system: A549 cells; assay: CellTiter-Glo cell viability assay (cytotoxicity), A549; format: cell-based, human; conditions: Homo sapiens, A549; 48 h, mean ± SEM
Procedure: as §1, §2

[9] = test system: P-gp expressing HCT-15 cells; assay: Sensitization of HCT-15 cells to doxorubicin (co-treatment, cell viability); format: cell-based, human
Procedure: as §2
(§4) The ability of identified inhibitors of P-gp and BCRP to sensitize HCT-15 or MCF-7/MX cells to chemotherapy was analyzed by co-treatment with test compounds and doxorubicin or mitoxantrone, respectively. Cells were incubated with a serial dilution of the chemotherapeutic drug alone or in combination with fixed concentrations of the test compounds or positive controls (2.5 μM PSC833 and 1 μM Ko143, respectively). Fold change of drug IC50 was calculated with the formula IC50 (drug alone)/IC50 (drug with modulator).

[10] = test system: BCRP-expressing MCF-7/MX cells; assay: Sensitization of MCF-7/MX cells to mitoxantrone (co-treatment, cell viability); format: cell-based, human
Procedure: as §2, §4

[11] = human, P-gp-expressing HCT-15 cells, probe calcein-AM (0.5 μM), normalized to 2.5 μM PSC833 (100%) and DMSO (0%), read-out: Relative inhibition of P-gp

T3 sequence (P08183 whole entry): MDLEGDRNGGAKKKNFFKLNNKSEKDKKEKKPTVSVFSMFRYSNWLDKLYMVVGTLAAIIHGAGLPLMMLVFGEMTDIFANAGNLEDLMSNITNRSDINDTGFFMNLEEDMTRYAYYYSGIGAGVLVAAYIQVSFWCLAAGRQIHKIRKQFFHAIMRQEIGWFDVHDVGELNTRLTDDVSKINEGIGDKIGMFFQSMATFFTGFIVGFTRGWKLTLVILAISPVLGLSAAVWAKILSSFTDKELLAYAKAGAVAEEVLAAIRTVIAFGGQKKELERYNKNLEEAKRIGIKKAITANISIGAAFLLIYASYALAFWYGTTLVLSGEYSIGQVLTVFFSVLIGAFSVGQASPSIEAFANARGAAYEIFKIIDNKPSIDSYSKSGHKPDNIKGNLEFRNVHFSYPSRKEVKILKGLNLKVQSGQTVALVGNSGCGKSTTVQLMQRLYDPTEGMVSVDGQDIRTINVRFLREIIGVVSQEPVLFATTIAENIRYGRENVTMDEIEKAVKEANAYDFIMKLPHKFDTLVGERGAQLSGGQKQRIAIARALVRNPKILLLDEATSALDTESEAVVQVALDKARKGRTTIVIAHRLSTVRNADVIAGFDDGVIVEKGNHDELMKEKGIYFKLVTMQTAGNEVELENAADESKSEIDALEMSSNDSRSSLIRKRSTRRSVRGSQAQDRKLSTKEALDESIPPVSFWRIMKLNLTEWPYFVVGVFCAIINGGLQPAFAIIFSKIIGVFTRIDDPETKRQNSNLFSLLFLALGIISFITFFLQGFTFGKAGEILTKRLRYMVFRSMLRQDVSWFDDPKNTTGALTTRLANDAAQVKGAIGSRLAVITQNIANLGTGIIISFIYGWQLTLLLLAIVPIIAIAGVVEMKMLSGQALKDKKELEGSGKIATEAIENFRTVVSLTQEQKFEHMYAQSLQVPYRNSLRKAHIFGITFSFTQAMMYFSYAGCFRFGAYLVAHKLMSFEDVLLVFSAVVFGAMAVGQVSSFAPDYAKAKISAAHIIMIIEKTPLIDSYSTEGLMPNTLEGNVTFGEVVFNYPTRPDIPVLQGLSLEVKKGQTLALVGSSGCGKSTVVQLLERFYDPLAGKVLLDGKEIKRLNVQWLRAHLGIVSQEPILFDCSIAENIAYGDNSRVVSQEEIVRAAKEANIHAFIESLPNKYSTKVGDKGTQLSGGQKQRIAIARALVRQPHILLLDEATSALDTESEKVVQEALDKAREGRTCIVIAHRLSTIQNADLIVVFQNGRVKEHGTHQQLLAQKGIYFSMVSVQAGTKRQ
T1 sequence (P33302 whole entry): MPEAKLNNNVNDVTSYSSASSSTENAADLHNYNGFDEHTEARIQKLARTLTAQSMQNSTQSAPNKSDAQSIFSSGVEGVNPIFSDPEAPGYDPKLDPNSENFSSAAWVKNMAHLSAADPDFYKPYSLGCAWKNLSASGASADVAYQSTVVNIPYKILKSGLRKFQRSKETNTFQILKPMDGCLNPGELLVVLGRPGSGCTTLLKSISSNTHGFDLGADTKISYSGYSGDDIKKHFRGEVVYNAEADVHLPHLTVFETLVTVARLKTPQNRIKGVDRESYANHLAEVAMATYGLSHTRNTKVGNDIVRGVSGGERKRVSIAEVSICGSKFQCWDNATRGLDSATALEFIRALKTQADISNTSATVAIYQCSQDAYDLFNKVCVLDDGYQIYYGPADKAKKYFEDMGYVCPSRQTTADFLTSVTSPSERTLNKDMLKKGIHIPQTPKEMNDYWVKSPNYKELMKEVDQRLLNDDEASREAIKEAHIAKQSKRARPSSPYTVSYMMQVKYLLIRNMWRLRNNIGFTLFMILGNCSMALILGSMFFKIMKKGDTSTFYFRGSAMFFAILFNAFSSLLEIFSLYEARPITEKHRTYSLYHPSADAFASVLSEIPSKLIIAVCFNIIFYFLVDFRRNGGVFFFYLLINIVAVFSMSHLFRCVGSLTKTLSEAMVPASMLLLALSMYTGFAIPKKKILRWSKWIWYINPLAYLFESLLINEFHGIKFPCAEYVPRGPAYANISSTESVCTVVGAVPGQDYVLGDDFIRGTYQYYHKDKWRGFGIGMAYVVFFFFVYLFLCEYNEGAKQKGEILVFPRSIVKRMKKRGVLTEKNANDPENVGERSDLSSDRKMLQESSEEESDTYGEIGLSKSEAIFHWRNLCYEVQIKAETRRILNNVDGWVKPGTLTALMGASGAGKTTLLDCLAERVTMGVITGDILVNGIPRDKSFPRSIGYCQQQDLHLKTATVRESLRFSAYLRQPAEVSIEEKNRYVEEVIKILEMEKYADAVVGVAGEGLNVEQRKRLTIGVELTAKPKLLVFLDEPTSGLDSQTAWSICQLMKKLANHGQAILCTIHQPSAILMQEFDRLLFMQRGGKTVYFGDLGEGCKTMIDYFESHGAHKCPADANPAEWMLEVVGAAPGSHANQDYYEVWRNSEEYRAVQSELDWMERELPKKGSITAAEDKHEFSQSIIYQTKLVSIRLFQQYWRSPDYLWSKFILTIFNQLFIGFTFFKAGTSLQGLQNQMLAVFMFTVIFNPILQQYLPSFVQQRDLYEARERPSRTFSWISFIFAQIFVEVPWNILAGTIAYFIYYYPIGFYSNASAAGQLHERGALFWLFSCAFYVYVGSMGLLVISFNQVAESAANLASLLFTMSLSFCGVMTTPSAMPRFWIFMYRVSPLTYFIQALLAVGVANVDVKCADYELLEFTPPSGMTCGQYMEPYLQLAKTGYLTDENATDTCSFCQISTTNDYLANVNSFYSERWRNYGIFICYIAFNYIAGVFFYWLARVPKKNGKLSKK

| Compound | IC50 [1] | IC50 [2] | IC50 [3] | Inhibition of BCRP (in words) [6] | IC50 [8] | ATPase activity of Pdr5 WT inhibited to (initial screen) [5] | also measured |
| --- | --- | --- | --- | --- | --- | --- | --- |
| COc1cc(O)c2c(c1)C[C@@H](C)OC2=O [6-Methoxymellein (3), 6-methoxymellein] | > 100 µM | > 100 µM | > 100 µM | no inhibitory activity could be observed | > 100 µM | – | R6G transport activity of Pdr5 WT inhibited to (initial screen) ([4]; listed as 3): no effect; R6G transport activity of Pdr5 WT inhibited to (initial screen) ([4]; listed as 6-methoxymellein (3)): did not interfere with Pdr5-mediated R6G transport; ATPase activity of Pdr5 WT inhibited to (initial screen) ([5]; listed as 3): nearly no effect; ATPase activity of Pdr5 WT inhibited to (initial screen) ([5]; listed as 6-methoxymellein (3)): no inhibitory effect; Inhibition of P-gp (in words) [7]: did not differ significantly from those of derivative 14 |
| COc1cc(O)c2c(c1)C[C@H](CCO[Si](C)(C)C(C)(C)C)OC2=O [(R)-19] | 28.1 ± 0.7 µM | > 100 µM | 57.1 ± 7.5 µM | – | 47.5 ± 3.2 µM | – | IC50 [4]: 26 ± 3.5 µM; R6G transport activity of Pdr5 WT inhibited to (initial screen) [4]: inhibit the transport of R6G completely; also recorded: inhibit the transport activity of Pdr5 WT completely; inhibition at 20 μM [7, 11]: > 20% |
| COc1cc(O)c2c(c1)C[C@H](CCO)OC2=O [(R)-19a] | > 100 µM | > 100 µM | > 100 µM | completely abolished inhibitory ability | > 100 µM | nearly no effect; also recorded: no inhibition of the ATPase activity was observed | – |
| COc1cc(O)c2c(c1)C[C@@H](CCO[Si](C)(C)C(C)(C)C)OC2=O [(S)-19] | 33.5 ± 7.5 µM | 86.8 ± 9.2 µM | > 100 µM | – | 42 ± 3.9 µM | – | IC50 [4]: 5.3 ± 0.6 µM; R6G transport activity of Pdr5 WT inhibited to (initial screen) [4]: inhibit the transport of R6G completely; also recorded: inhibit the transport activity of Pdr5 WT completely; inhibition at 10 μM ([7]; human, P-gp-expressing HCT-15 cells, probe calcein-AM (0.5 μM), 10 μM, normalized to 2.5 μM PSC833 (100%) and DMSO (0%), read-out: Relative inhibition of P-gp): 37.1 ± 2.9%; inhibition at 20 μM [7, 11]: > 20% |
| COc1cc(O)c2c(c1)C[C@@H](CCO)OC2=O [(S)-19a] | 89.8 ± 4.9 µM | > 100 µM | > 100 µM | completely abolished inhibitory ability | > 100 µM | nearly no effect; also recorded: no inhibition of the ATPase activity was observed | – |
| COc1cc2c(c(OC)c1)C(=O)OCC2 [Compound 14a] | > 100 µM | > 100 µM | > 100 µM | did not inhibit BCRP | > 100 µM | – | Relative inhibition of P-gp, span over the tested concentrations ([7]; different concentrations, normalized to PSC833): up to 10% |
| COc1cc(O)c2c(=O)oc3ccccc3c2c1 [Compound 21] | > 50 µM | > 50 µM | > 50 µM | – | > 50 µM | 50% and 54% | Relative inhibition rate of P-gp ([7]; highest concentration used): 20.0 ± 1.2% |
| COc1cccc2c1C(=O)c1c(O)c3c(c(O)c1C2=O)C[C@@](O)(C(=O)CO)C[C@@H]3O[C@H]1C[C@H](N)[C@H](O)[C@H](C)O1 [Doxorubicin, doxorubicin, reference compound] | – | – | – | – | – | – | IC50 ([9]; Homo sapiens, HCT-15, doxorubicin alone, 48 h): 8.5 ± 0.7 µM; Fold change of doxorubicin IC50 ([9]; doxorubicin alone (reference)): 1.00 |
| O=C1c2c(O)ccc(O)c2C(=O)c2c(NCCNCCO)ccc(NCCNCCO)c21 [Mitoxantrone, mitoxantrone, reference compound] | – | – | – | – | – | – | IC50 ([10]; Homo sapiens, MCF7/MX, mitoxantrone alone, 48 h): 19.6 ± 2.4 µM; Fold change of mitoxantrone IC50 ([10]; mitoxantrone alone (reference)): 1.00 |
